# Measurements reported in US20240083981A1, “TREATMENT OF HERPES SIMPLEX VIRUS INFECTION” (priority 2022, published 2024).
# Experiments:
# [1] = tested on: HSV-1 RE TKnull; experiment: microbe, parasite or virus in culture; conditions: Human alphaherpesvirus 1, Vero, 24 h
# [2] = tested on: HSV-2 333 TKnull; experiment: microbe, parasite or virus in culture; conditions: Human alphaherpesvirus 2, Vero, 24 h
# [3] = tested on: clinical HSV-1 isolates; experiment: Inhibition of clinically derived HSV-1 isolates in Vero cells, cell viability assay; format: cell-based; conditions: US origin
# Protocol: Four American isolates (HSV-1 Bethesda and HSV-1 RH; HSV-2 Bethesda and HSV-2 RH), 3 Asian isolates (HSV-2 JA-1, HSV-2 JA-2, and HSV-2 JA-3), and 4 isolates with ACV resistance (poly-mut, C7, C8, and IC) were investigated via a cell viability assay. […] Then, the mixtures were aliquoted into a 96-well plate seeded with Vero cells. After incubation for 48 hours at 37° C., the plate was washed with PBS once, and the viable cells were incubated with 1% Alamar blue for 1 hour.
# [4] = Human alphaherpesvirus 1, Vero, HSV-1 RH
compound,measurement,setting,value
"Nc1nc2c(ncn2COCCO)c(=O)[nH]1 [ACV, acyclovir]",IC50,[1],> 0.1 µM
same,IC50,[2],> 0.1 µM
same,IC90,[3]; HSV-1 Bethesda,> 35.5 µM
same,IC50,"[3]; Human alphaherpesvirus 1, Vero, HSV-1 Bethesda",3.62 µM
same,IC50,[3]; [4],4.73 µM
same,IC90,[3]; [4],> 35.5 µM
